Results from patent publication US20040053786A1, “Insecticidal 1,8-naphthalenedicarboxamides” (priority 2000, published 2004).

melting point: 215 °C
SMILES: CNC(=O)c1cccc2cccc(NC(=O)c3cccs3)c12 [Compound 120, N-methyl 8-[(2-thienyl)carbonylamino]-1-naphthalenecarboxamide]
